Assay results from patent US12281122B1, “PI3K inhibitors” (Cogent Biosciences, Inc., priority 2023, dated 2025).
Values belong to the compound of their own block, whether it stands above or below them.

Key:
[1] = system: SKBR3 (PI3Kα-Wild Type) cell line; assay: HTRF phospho-AKT(S473) cell assay in SKBR3 cells; format: cell-based, human; conditions: Homo sapiens, SK-BR-3, 2 hours compound incubation, PDGF-BB stimulated
Method in brief: (§1)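 Cells plated overnight (T47D in RPMI/10% FBS/0.2 units/mL insulin; SKBR3 in McCoy's 5A/10% FBS), then given 12-point 1:3 compound series (top 5 μM T47D, 10 μM SKBR3; ≤0.5% DMSO) for 2 h at 37° C. SKBR3 stimulated with 70 ng/ml PDGF-BB for final 15 min. Lysate pAKT(S473) by HTRF; IC50 calculated.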

[2] = system: T47D (PI3Kα-H1047R) cell line; assay: HTRF phospho-AKT(S473) cell assay in T47D cells; format: cell-based, human; conditions: Homo sapiens, 2 hours compound incubation
Method in brief: as §1

[3] = HTRF phospho-AKT(S473), SKBR3 (PI3Kα-Wild Type) cells
[4] = HTRF phospho-AKT(S473), T47D (PI3Kα-H1047R) cells
[5] = SKBR3 (PI3Kα-Wild Type) cells, HTRF phospho-AKT(S473)
[6] = T47D (PI3Kα-H1047R) cells, HTRF phospho-AKT(S473)
[7] = SKBR3 (PI3Kα-Wild Type) cell line, phospho-AKT(S473) HTRF
[8] = T47D (PI3Kα-H1047R) cell line, phospho-AKT(S473) HTRF

IC50 [1, 3]: 1000 to 5000 nM
IC50 [2, 4]: 250 to 500 nM
Compound: Cc1cc([C@@H](C)Nc2ccc(Cl)nc2C(=O)NS(C)(=O)=O)c2nc(N3C[C@@H]4C[C@H]3C[C@H]4c3nn(C)cc3F)n(C)c(=O)c2c1 (relative stereo) [Compound 761, 6-chloro-3-(((R)-1-(2-((1R*,4S*,5S*)-5-(4-fluoro-1-methyl-1H-pyrazol-3-yl)-2-azabicyclo[2.2.1]heptan-2-yl)-3,6-dimethyl-4-oxo-3,4-dihydroquinazolin-8-yl)ethyl)amino)-N-(methylsulfonyl) picolinamide]

IC50 [1, 3]: ≥ 5000 nM
IC50 [2, 4]: < 250 nM
Compound: [2H]C([2H])([2H])n1ccc(C2CCN(c3nc4c([C@@H](C)Nc5ccc(Cl)nc5C(=O)NS(C)(=O)=O)cc(C)cc4c(=O)n3C)CC2)n1 [Compound 746, (R)-6-chloro-3-((1-(3,6-dimethyl-2-(4-(1-(methyl-d3)-1H-pyrazol-3-yl)piperidin-1-yl)-4-oxo-3,4-dihydroquinazolin-8-yl)ethyl)amino)-N-(methylsulfonyl) picolinamide]

IC50 [1, 3]: ≥ 5000 nM
IC50 [2, 4]: 250 to 500 nM
Compound: Cc1cc([C@@H](C)Nc2ccc(Cl)nc2C(=O)NS(C)(=O)=O)c2nc(N3CCC(Oc4ccccn4)CC3)n(C)c(=O)c2c1 [Compound 694, (R)-6-chloro-3-((1-(3,6-dimethyl-4-oxo-2-(4-(pyridin-2-yloxy)piperidin-1-yl)-3,4-dihydroquinazolin-8-yl)ethyl)amino)-N-(methylsulfonyl) picolinamide]

IC50 [1, 3]: 1000 to 5000 nM
IC50 [2, 4]: < 250 nM
Compound: Cc1cc([C@@H](C)Nc2ccc(Cl)nc2C(=O)NS(C)(=O)=O)c2nc(N3CC[C@@H](c4ccnc(C)c4)C3)n(C)c(=O)c2c1 (relative stereo) [Compound 764, 6-chloro-3-(((R)-1-(3,6-dimethyl-2-((R*)-3-(2-methylpyridin-4-yl)pyrrolidin-1-yl)-4-oxo-3,4-dihydroquinazolin-8-yl)ethyl)amino)-N-(methylsulfonyl) picolinamide]

IC50 [1, 3]: 1000 to 5000 nM
IC50 [2, 4]: < 250 nM
Compound: Cc1cc([C@@H](C)Nc2ccc(Cl)nc2C(=O)NS(C)(=O)=O)c2nc(-c3ccc4nn(C)nc4c3)n(C)c(=O)c2c1 [Compound 781, (R)-6-chloro-3-((1-(3,6-dimethyl-2-(2-methyl-2H-benzo[d][1,2,3]triazol-5-yl)-4-oxo-3,4-dihydroquinazolin-8-yl)ethyl)amino)-N-(methylsulfonyl) picolinamide]

IC50 [1, 7]: 1000 to 5000 nM
IC50 [2, 8]: 250 to 500 nM
Compound: Cc1cc([C@@H](C)Nc2ccc(Cl)nc2C(=O)NS(C)(=O)=O)c2nc(-c3ccc(-c4nc(C)no4)nc3)n(C)c(=O)c2c1 [Compound 843, (R)-6-chloro-3-((1-(3,6-dimethyl-2-(6-(3-methyl-1,2,4-oxadiazol-5-yl)pyridin-3-yl)-4-oxo-3,4-dihydroquinazolin-8-yl)ethyl)amino)-N-(methylsulfonyl) picolinamide]

IC50 [1, 3]: ≥ 5000 nM
IC50 [2, 4]: 1000 to 5000 nM
Compound: Cc1cc([C@@H](C)Nc2ccc(Cl)nc2C(=O)NS(C)(=O)=O)c2nc(N3CC[C@@H](Oc4ccnnc4)C3)n(C)c(=O)c2c1 [Compound 710, 6-chloro-3-(((R)-1-(3,6-dimethyl-4-oxo-2-((R)-3-(pyridazin-4-yloxy)pyrrolidin-1-yl)-3,4-dihydroquinazolin-8-yl)ethyl)amino)-N-(methylsulfonyl) picolinamide]

IC50 [1, 3]: 1000 to 5000 nM
IC50 [2, 4]: < 250 nM
Compound: CC(=O)N1CCN(c2ccc(-c3nc4c([C@@H](C)Nc5ccc(Cl)nc5C(=O)NS(C)(=O)=O)cc(C)cc4c(=O)n3C)c(F)c2)CC1 [Compound 785, (R)-3-((1-(2-(4-(4-acetylpiperazin-1-yl)-2-fluorophenyl)-3,6-dimethyl-4-oxo-3,4-dihydroquinazolin-8-yl)ethyl)amino)-6-chloro-N-(methylsulfonyl) picolinamide]

IC50 [1, 7]: ≥ 5000 nM
IC50 [2, 8]: 1000 to 5000 nM
Compound: Cc1cc([C@@H](C)Nc2ccc(Cl)nc2C(=O)NS(C)(=O)=O)c2nc([C@H]3[C@@H]4CNC[C@@H]43)n(C)c(=O)c2c1 [Compound 848, 3-(((R)-1-(2-((1R,5S,6r)-3-azabicyclo[3.1.0]hexan-6-yl)-3,6-dimethyl-4-oxo-3,4-dihydroquinazolin-8-yl)ethyl)amino)-6-chloro-N-(methylsulfonyl) picolinamide]

The remaining lines, values behind:

Compound: Cc1cc([C@@H](C)Nc2ccc(Cl)nc2C(=O)NS(C)(=O)=O)c2nc(N3C[C@@H]4C[C@H]3CN4c3cnc(C)c(F)c3)n(C)c(=O)c2c1 [Compound 608, 6-chloro-3-(((R)-1-(2-((1S,4S)-5-(5-fluoro-6-methylpyridin-3-yl)-2,5-diazabicyclo [2.2.1]heptan-2-yl)-3,6-dimethyl-4-oxo-3,4-dihydroquinazolin-8-yl)ethyl)amino)-N-(methylsulfonyl) picolinamide]
IC50 [1, 3]: ≥ 5000 nM
IC50 [2, 4]: 500 to 1000 nM

Compound: Cc1cc([C@@H](C)Nc2ccc(Cl)nc2C(=O)NS(C)(=O)=O)c2nc(N3CCN(c4cnn(CC(F)(F)F)c4)CC3)n(C)c(=O)c2c1 [Compound 193, (R)-6-chloro-3-((1-(3,6-dimethyl-4-oxo-2-(4-(1-(2,2,2-trifluoroethyl)-1H-pyrazol-4-yl)piperazin-1-yl)-3,4-dihydroquinazolin-8-yl)ethyl)amino)-N-(methylsulfonyl) picolinamide]
IC50 [1, 5]: 1000 to 5000 nM
IC50 [2, 6]: < 250 nM

Compound: Cc1cc([C@@H](C)Nc2ccc(Cl)nc2C(=O)NS(C)(=O)=O)c2nc(N3C[C@@H]4[C@H](C3)[C@H]4c3n[nH]cc3F)n(C)c(=O)c2c1 [Compound 454, 6-chloro-3-(((R)-1-(2-((1R,5S,6R)-6-(4-fluoro-1H-pyrazol-3-yl)-3-azabicyclo[3.1.0]hexan-3-yl)-3,6-dimethyl-4-oxo-3,4-dihydroquinazolin-8-yl)ethyl)amino)-N-(methylsulfonyl) picolinamide]
IC50 [1, 3]: 1000 to 5000 nM
IC50 [2, 4]: < 250 nM

Compound: Cc1cc([C@@H](C)Nc2ccc(Cl)nc2C(=O)NS(C)(=O)=O)c2nc(N3Cc4cc(F)cnc4C3)n(C)c(=O)c2c1 [Compound 225, (R)-6-chloro-3-((1-(2-(3-fluoro-5,7-dihydro-6H-pyrrolo[3,4-b]pyridin-6-yl)-3,6-dimethyl-4-oxo-3,4-dihydroquinazolin-8-yl)ethyl)amino)-N-(methylsulfonyl) picolinamide]
IC50 [1, 5]: 1000 to 5000 nM
IC50 [2, 6]: < 250 nM

Compound: Cc1cc([C@@H](C)Nc2ccc(Cl)nc2C(=O)NS(C)(=O)=O)c2nc(N3C[C@@H]4[C@H](C3)[C@H]4c3cc4ncccn4n3)n(C)c(=O)c2c1 [Compound 508, 6-chloro-3-(((R)-1-(3,6-dimethyl-4-oxo-2-((1R,5S,6R)-6-(pyrazolo[1,5-a]pyrimidin-2-yl)-3-azabicyclo[3.1.0]hexan-3-yl)-3,4-dihydroquinazolin-8-yl)ethyl)amino)-N-(methylsulfonyl) picolinamide]
IC50 [1, 3]: 1000 to 5000 nM
IC50 [2, 4]: < 250 nM

Compound: C[C@@H](Nc1ccc(Cl)nc1C(=O)NS(C)(=O)=O)c1cc(C2CC2)cc2c(=O)n(C)c(N3CCC(c4nn(C)cc4F)CC3)nc12 [Compound 397, (R)-6-chloro-3-((1-(6-cyclopropyl-2-(4-(4-fluoro-1-methyl-1H-pyrazol-3-yl)piperidin-1-yl)-3-methyl-4-oxo-3,4-dihydroquinazolin-8-yl)ethyl)amino)-N-(methylsulfonyl) picolinamide]
IC50 [1, 5]: ≥ 5000 nM
IC50 [2, 6]: 250 to 500 nM

Compound: Cc1cc([C@@H](C)Nc2ccc(Cl)nc2C(=O)NS(C)(=O)=O)c2nc(N3CCC(c4ncn(C(C)C)n4)CC3)n(C)c(=O)c2c1 [Compound 550, (R)-6-chloro-3-((1-(2-(4-(1-isopropyl-1H-1,2,4-triazol-3-yl)piperidin-1-yl)-3,6-dimethyl-4-oxo-3,4-dihydroquinazolin-8-yl)ethyl)amino)-N-(methylsulfonyl) picolinamide]
IC50 [1, 3]: ≥ 5000 nM
IC50 [2, 4]: 250 to 500 nM

Compound: Cc1ccc(C2CCN(c3nc4c([C@@H](C)Nc5ccc(Cl)nc5C(=O)NS(C)(=O)=O)cc(C)cc4c(=O)n3C)CC2)nc1 [Compound 403, (R)-6-chloro-3-((1-(3,6-dimethyl-2-(4-(5-methylpyridin-2-yl)piperidin-1-yl)-4-oxo-3,4-dihydroquinazolin-8-yl)ethyl)amino)-N-(methylsulfonyl) picolinamide]
IC50 [1, 5]: ≥ 5000 nM
IC50 [2, 6]: < 250 nM

Compound: Cc1cc([C@@H](C)Nc2ccc(Cl)nc2C(=O)NS(C)(=O)=O)c2nc(N3CCC[C@@H](c4cnc(C)cn4)C3)n(C)c(=O)c2c1 (relative stereo) [Compound 586, 6-chloro-3-(((R)-1-(3,6-dimethyl-2-((R*)-3-(5-methylpyrazin-2-yl)piperidin-1-yl)-4-oxo-3,4-dihydroquinazolin-8-yl)ethyl)amino)-N-(methylsulfonyl) picolinamide]
IC50 [1, 3]: ≥ 5000 nM
IC50 [2, 4]: 250 to 500 nM

Compound: Cc1cc([C@@H](C)Nc2ccc(Cl)nc2C(=O)NS(C)(=O)=O)c2nc(N3CCC(c4ccn(C5CC5)n4)CC3)n(C)c(=O)c2c1 [Compound 267, (R)-6-chloro-3-((1-(2-(4-(1-cyclopropyl-1H-pyrazol-3-yl)piperidin-1-yl)-3,6-dimethyl-4-oxo-3,4-dihydroquinazolin-8-yl)ethyl)amino)-N-(methylsulfonyl) picolinamide]
IC50 [1, 5]: 1000 to 5000 nM
IC50 [2, 6]: < 250 nM

Compound: Cc1cc([C@@H](C)Nc2ccc(Cl)nc2C(=O)NS(C)(=O)=O)c2nc(N3CCC(c4nn(C)cc4C)CC3)n(C)c(=O)c2c1 [Compound 248, ®-6-chloro-3-((1-(2-(4-(1,4-dimethyl-1H-pyrazol-3-yl)piperidin-1-yl)-3,6-dimethyl-4-oxo-3,4-dihydroquinazolin-8-yl)ethyl)amino)-N-(methylsulfonyl) picolinamide]
IC50 [1, 5]: 1000 to 5000 nM
IC50 [2, 6]: < 250 nM
